This is an account of results in PubChem BioAssay (NCI).

Some test systems named below: OVCAR-5 ovarian; HCC-2998 colon; NCI-H23 lung; MCF7 breast; LOX IMVI melanoma; T-47D breast; NCI-H226 lung; A549 NSCLC; HS 578T breast; NCI-H460 lung.
Common to all, as to test: NCI anticancer screen, dose series, 48 h

SMILES strings stand for the structures.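 Briefly, cells in 96-well plates were exposed to five compound concentrations for 48 h, and endpoints were estimated by linear interpolation. TGI: concentration producing complete growth inhibition.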

Consider `COc1cc2nc(-c3cccs3)nc(Nc3ccccc3C(=O)NN)c2cc1OC`, for which the TGI with OVCAR-5 ovarian, with HCC-2998 colon, in the experiment on NCI-H23 lung, in the experiment with MCF7 breast, in the experiment on LOX IMVI melanoma and in the experiment on T-47D breast was over 100 µM each time. Besides, the TGI in the experiment on NCI-H226 lung, in the experiment with A549 NSCLC, in the experiment with HS 578T breast and in the experiment with NCI-H460 lung was over 100 µM throughout.

As for `Clc1nc2nc(N3CCNCC3)nc(N3CCCC3)c2[nH]1`, the TGI with OVCAR-5 ovarian is 44.3 µM; in the experiment with HCC-2998 colon, 29.5 µM; in the experiment on NCI-H23 lung it was 32 µM; in the experiment on MCF7 breast it was 32.2 µM; in the experiment on LOX IMVI melanoma it was 29.4 µM; in the experiment on T-47D breast it was 33.6 µM. Moreover, the TGI was over 100 µM in the experiment with NCI-H226 lung, 33.1 µM in the experiment with A549 NSCLC, over 100 µM in the experiment with HS 578T breast and 32.7 µM in the experiment with NCI-H460 lung.

In the case of `N#Cc1c(/C=C/c2ccccc2)c2c([nH]c1=S)CCCCC2`, the TGI in the experiment with OVCAR-5 ovarian, with HCC-2998 colon, with NCI-H23 lung, in the experiment with MCF7 breast, with LOX IMVI melanoma and in the experiment with T-47D breast was over 100 µM in each case. The TGI with NCI-H226 lung, in the experiment with A549 NSCLC, with HS 578T breast and in the experiment with NCI-H460 lung was over 100 µM each time.

For the compound `OC(CCN1CCN(CCOC(c2ccccc2)c2ccccc2)CC1)c1ccccc1` (stereo not given), the TGI with OVCAR-5 ovarian is over 100 µM; in the experiment on HCC-2998 colon it was 28.9 µM; in the experiment with NCI-H23 lung, 63.1 µM; with MCF7 breast, 47.4 µM; with LOX IMVI melanoma, 34.2 µM; with T-47D breast, 48.8 µM. Moreover, the TGI in the experiment on NCI-H226 lung is 88.2 µM; in the experiment on A549 NSCLC it was over 100 µM; in the experiment on HS 578T breast, 45 µM; in the experiment on NCI-H460 lung, 35.7 µM.

Regarding `COc1cc(C(c2ccccc2)N2C(=O)CC[C@H]2C(=O)O)cc(OC)c1OC` (stereo not given in full), the TGI in the experiment on OVCAR-5 ovarian, with HCC-2998 colon, with NCI-H23 lung, with MCF7 breast, with LOX IMVI melanoma and with T-47D breast was over 100 µM each time. Further, the TGI with NCI-H226 lung, in the experiment on A549 NSCLC, in the experiment on HS 578T breast and with NCI-H460 lung was over 100 µM each time.

Turning to `O=C1C(c2ccccc2)=C(c2ccccc2)C1(Cl)Cl`, the TGI with OVCAR-5 ovarian amounted to 20.8 µM; with HCC-2998 colon it was 13.3 µM; in the experiment with NCI-H23 lung, 7.72 µM; in the experiment on MCF7 breast, 9.92 µM; in the experiment on LOX IMVI melanoma, 4.25 µM; in the experiment on T-47D breast, 10.6 µM. Moreover, the TGI in the experiment on NCI-H226 lung is 10.1 µM; in the experiment on A549 NSCLC it was 27.4 µM; with HS 578T breast, over 28.8 µM; in the experiment on NCI-H460 lung, 20.8 µM.

Turning to `O=c1oc2ccccc2c(O)c1C(c1ccc(OCc2ccccc2)cc1)c1c(O)c2ccccc2oc1=O`, the TGI with OVCAR-5 ovarian is over 100 µM; in the experiment with HCC-2998 colon, 96.9 µM; with NCI-H23 lung, over 100 µM; with MCF7 breast it was over 100 µM; in the experiment with LOX IMVI melanoma, over 100 µM; in the experiment with T-47D breast, over 100 µM. The TGI in the experiment on NCI-H226 lung, in the experiment on A549 NSCLC, in the experiment with HS 578T breast and with NCI-H460 lung was over 100 µM in each case.

Take `N=C1C=CC(=C(c2ccc(N)cc2)c2ccc(N)cc2)C=C1`: the TGI with OVCAR-5 ovarian amounted to 50.3 µM; in the experiment on HCC-2998 colon, 18.6 µM; in the experiment on NCI-H23 lung it was 16.3 µM; in the experiment on MCF7 breast it was 13.2 µM; in the experiment on LOX IMVI melanoma, 15.4 µM; with T-47D breast, 8.74 µM. Also, the TGI stood at 18.2 µM in the experiment on NCI-H226 lung, 32.1 µM in the experiment with A549 NSCLC, 8.18 µM in the experiment with HS 578T breast and 36.9 µM in the experiment with NCI-H460 lung.

Consider `O=C(CC(=O)N1N=C(c2ccccc2)C(N=Nc2ccc(S(=O)(=O)CCOS(=O)(=O)O)cc2)C1=O)Nc1ccc(Cl)cc1` (stereo not given), for which the TGI in the experiment on OVCAR-5 ovarian, in the experiment with HCC-2998 colon, with NCI-H23 lung, in the experiment on MCF7 breast, in the experiment with LOX IMVI melanoma and in the experiment with T-47D breast was over 100 µM each time. Also, the TGI with NCI-H226 lung was over 100 µM; in the experiment with A549 NSCLC it was over 100 µM; in the experiment on HS 578T breast it was 99.6 µM; with NCI-H460 lung it was over 100 µM.

Take `O=C(CCCCCNC(=O)c1ccc(Cl)cc1)NO`: the TGI with OVCAR-5 ovarian was 8.43 µM; in the experiment on HCC-2998 colon, 18.3 µM; in the experiment with NCI-H23 lung it was 51.5 µM; in the experiment with MCF7 breast it was over 100 µM; in the experiment with LOX IMVI melanoma, 17 µM; in the experiment on T-47D breast, 5.14 µM. Besides, the TGI in the experiment with NCI-H226 lung was 71.2 µM; in the experiment with A549 NSCLC, 81.9 µM; with HS 578T breast it was over 100 µM; in the experiment on NCI-H460 lung, 39.6 µM.

For the compound `COC1(OC)CC(CO)(COc2cc(Cl)nc(N)n2)C1`, the TGI in the experiment on OVCAR-5 ovarian, in the experiment with HCC-2998 colon, with NCI-H23 lung, with MCF7 breast, in the experiment with LOX IMVI melanoma and in the experiment with T-47D breast was over 100 µM in each case. Also, the TGI with NCI-H226 lung, with A549 NSCLC, with HS 578T breast and in the experiment on NCI-H460 lung was over 100 µM throughout.

Regarding `C1=CC2C(C3CN(c4ccccc4)N=C13)C1C3C4C=CC21C=CC43` (stereo not given), the TGI with OVCAR-5 ovarian, with HCC-2998 colon, with NCI-H23 lung, in the experiment with MCF7 breast, with LOX IMVI melanoma and in the experiment with T-47D breast was over 100 µM each time. Besides, the TGI with NCI-H226 lung, in the experiment with A549 NSCLC, in the experiment with HS 578T breast and in the experiment with NCI-H460 lung was over 100 µM each time.

For the compound `c1ccc2c(c1)nnn2C1CCCCO1` (stereo not given), the TGI in the experiment with OVCAR-5 ovarian, in the experiment with HCC-2998 colon, in the experiment on NCI-H23 lung, in the experiment with MCF7 breast, in the experiment with LOX IMVI melanoma and with T-47D breast was over 100 µM throughout. In addition, the TGI in the experiment on NCI-H226 lung, with A549 NSCLC, in the experiment on HS 578T breast and with NCI-H460 lung was over 100 µM in each case.

Take `CCOc1ccc2c(c1)C(/C(C(Cl)=C(Cl)Cl)=[N+](/[O-])OC(=O)c1ccccc1)=N2`: the TGI in the experiment on OVCAR-5 ovarian, in the experiment with HCC-2998 colon, in the experiment with NCI-H23 lung, with MCF7 breast, in the experiment on LOX IMVI melanoma and in the experiment with T-47D breast was over 100 µM throughout. Besides, the TGI in the experiment on NCI-H226 lung, in the experiment with A549 NSCLC, with HS 578T breast and in the experiment on NCI-H460 lung was over 100 µM in each case.

On to `C[Si](C)(C)OC1(C#N)c2ccccc2CCCC12CCCC2` (stereo not given), for which the TGI in the experiment with OVCAR-5 ovarian was over 100 µM; in the experiment with HCC-2998 colon, 44 µM; in the experiment with NCI-H23 lung it was over 100 µM; in the experiment on MCF7 breast, over 100 µM; in the experiment with LOX IMVI melanoma it was 49.6 µM; with T-47D breast it was 85.5 µM. Moreover, the TGI in the experiment on NCI-H226 lung, with A549 NSCLC, in the experiment on HS 578T breast and with NCI-H460 lung was over 100 µM throughout.

For `CCC[N+](C)(C)CCCNC(=O)c1c(O)c2ccccc2[nH]c1=O`, the TGI with OVCAR-5 ovarian, in the experiment on HCC-2998 colon, in the experiment on NCI-H23 lung, in the experiment with MCF7 breast, with LOX IMVI melanoma and in the experiment with T-47D breast was over 100 µM each time. Further, the TGI in the experiment on NCI-H226 lung, in the experiment with A549 NSCLC, in the experiment with HS 578T breast and with NCI-H460 lung was over 100 µM throughout.
